# Columns and labels:
# [1] = test system: recombinant E. coli expressing MDH; experiment: Effect of Zn2+ on L-ribose production from ribitol; format: cell-based; settings: LB, 100 g/L ribitol, 0.5% glycerol
# Protocol: The cultures are analyzed for production of L-ribose vs. time. The optimum production of L-ribose occurs between 0.15 and 1.5 mM Zn^2+ with the best conversion at 0.5 mM ZnCl2 (FIG. 14).
# [2] = target: T1, Recombinant MDH (Apium graveolens, UniProt Q38707); experiment: Relative reaction rates of substrates with recombinantly expressed MDH (NADH measured spectrophotometrically); format: biochemical; settings: MDH expressed recombinantly; D-mannitol = 100%
# T1 construct: An MDH gene was synthetically constructed for expression E. coli; made in house; host or cells: E. coli BL21, pTTQ18 plasmid
# Protocol: (§1) Many different variables were studied to maximize the expression and activity of MDH. MDH activity was monitored with the conversion of D-mannitol to D-mannose in the presence of NAD. The conversion was monitored spectrophotometrically by measuring the increasing concentration of NADH, the cofactor product of the oxidation of mannitol to mannose. For a given experiment, lysate protein concentrations were normalized.
# (§2) Substrate specificity of the recombinant MDH was also tested and compared with the published data on the natively expressed MDH. Recombinant expression of MDH in E. coli could cause subtle modifications to the tertiary structure of MDH and modify the substrate specificity. Several known substrates of the MDH were tested.[16]
# [3] = target: T2, Native MDH (Apium graveolens, UniProt Q38707); settings: MDH expressed natively; D-mannitol = 100%; published data; cited from earlier work
# T2 construct: compared with the published data on the natively expressed MDH; host or cells: celery (Apium graveolens), native expression
# [4] = target: T3, Apium gravelons mannitol-1-dehydrogenase (MDH) (Apium graveolens, UniProt Q38707, C47S/T120I); experiment: MDH activity in lysate with added divalent metal salts; format: biochemical
# T3 construct: An MDH gene was synthetically constructed for expression E. coli; made in house; host or cells: E. coli BL21, pTTQ18 plasmid
# Protocol: While not explicitly described in the literature, Apium gravelons mannitol-1-dehydrogenase (MDH) requires divalent metal ions, particularly Zn^2+ ions, for activity. The presence of ZnSO4 increases MDH activity. Cells expressing MDH were grown in rich media were harvested and lysed with BUGBUSTER® protein extraction reagent, Novagen, Madison, Wis. MDH activity was then tested with increasing concentrations of ZnSO4 in the presence of D-mannitol and NAD cofactor at pH 9.0. See, FIG. 11.
# [5] = test system: recombinant E. coli MDH strain; experiment: Polyol bioconversion by the recombinant E. coli MDH strain, HPLC; format: cell-based; settings: strain with active phosphotransferase uptake system
# From the text: It was hypothesized that the lack of conversion was due to the phosphotransferase uptake system for D-mannitol, galactitol, and D-sorbitol, which phosphorylates these polyols upon uptake.
# [6] = test system: E. coli production strain with inactive PEP-dependent phosphotransferase system; experiment: Polyol conversion in shake flasks by mutagenized PTS-inactive E. coli MDH strain, HPLC; format: cell-based
# From the text: This can be accomplished by PCR-based genetic deletion of phosphocarrier protein ptsH, phosphotransferase system enzyme I ptsI, and the glucose specific enzyme IIA PTS component crr, but could be accomplished by other genetic manipulation including deletion of the polyol specific PTS type II genes or other genetic or biochemical manipulation known to those skilled in the art. These mutations render the production strain unable to metabolize or phosphorylatively uptake D-mannitol, galactitol, or D-sorbitol.
# Flasks contained LB, ampicillin, 250 μM ZnCl2, and 40 g/L galactitol, D-mannitol, or D-sorbitol. Cells were induced with 0.5 mM IPTG after 4 hrs growth at 37° C. and the temperature was reduced to 25° C. After 6 days of incubation, D-mannose had been created from D-mannitol with 12% conversion. D-sorbitol conversion to L-gulose ceased after 7 days with a final conversion of 12%. Following 14 days of reaction, L-galactose had been produced from galactitol with 40% conversion. The final products were characterized by non-chiral HPLC in comparison to their D-counterparts. Optical rotation was obtained by polarimetry and used to verify stereochemistry. This resulting strain is further capable of converting D-arabitol to D-lyxose at 24% conversion.
# [7] = test system: HIV; settings: cited from earlier work
# [8] = target: T4, Recombinant MDH (Apium graveolens, UniProt Q38707, C47S/T120I); experiment: Relative reaction rates of substrates with recombinantly expressed MDH (NADH measured spectrophotometrically); format: biochemical; settings: recombinant MDH
# T4 construct: An MDH gene was synthetically constructed for expression E. coli; made in house; host or cells: E. coli BL21, pTTQ18 plasmid
# Protocol: as §1, §2
# [9] = pH profile of MDH oxidation activity; format: biochemical; settings: relative to maximum at pH 9.0
# Protocol: as §1
# The pH profile for MDH for the oxidation reactions was also tested. […] This range could be beneficial for in vitro bioconversions with enzymatic NAD cofactor recycling methods. Increasing the activity of MDH at neutral pH could improve in vivo fermentation activity as the interior of the E. coli cell has a pH lower than 9.0.[21]
# [10] = Thermostability of recombinant MDH in lysates; format: physicochemical; settings: after four hours of incubation at various temperatures, except at 25° C.
# Protocol: The thermostability of recombinant MDH was also tested. Lysates containing MDH were incubated at various temperatures. Aliquots of MDH were removed at various times to measure MDH activity using the assay described above. See, FIG. 13.
# [11] = MDH thermal stability: incubation at 43° C. followed by kinetic assay; format: physicochemical; settings: relative to WT
# [12] = Fermentation of ribitol to L-ribose with wild-type MDH in E. coli; format: cell-based
# Protocol: Because of the successes with the expression of MDH in E. coli, additional experiments were performed to determine the feasibility of the MDH system to produce L-ribose with MDH enzyme. Initial fermentation experiments were performed in shake-flasks using rich media and varying concentrations of ribitol. With 2% ribitol (w/v), the MDH-expressing strain converted approximately 25% of the ribitol to L-ribose with 48 hrs. The goal for this strain would be to have >90% conversion within 24-48 hrs.
# One goal for the fermentation would be the synthesis of 100-150 g·L^−1 of L-ribose in 24-48 hrs with >90% conversion efficiency from ribitol. Initial fermentation results with the wild-type MDH show a productivity of approximately 35 g·L^−1 in 48 hrs with 30% ribitol converted.
molecule,measurement,setting,value
[Cl-].[Cl-].[Zn+2] [ZnCl2],ZnCl2 concentration of best conversion,[1],0.5 mM
OC[C@@H](O)[C@@H](O)CO [Erythritol],"Relative reaction rates, Recombinant MDH",[2],4%
same,"Relative reaction rates, Native MDH",[3],16%
O=S(=O)([O-])[O-].[Ni+2] [NiSO4],inhibition of MDH activity compared to MDH without NiSO4,[4]; 0.1 mM NiSO4,approximately 50%
O=S(=O)([O-])[O-].[Zn+2] [Zn^2+],concentrations showing inhibition of MDH activity,"[4]; D-mannitol, NAD, pH 9.0",above 1 μM
same,increase of MDH activity compared to no added zinc,"[4]; addition of 1 μM Zn2+, D-mannitol, NAD, pH 9.0",50%
OC[C@@H](O)[C@@H](O)[C@H](O)[C@@H](O)CO [D-Sorbitol],"Relative reaction rates, Recombinant MDH",[2],5%
same,conversion of polyol to sugar detected by HPLC,[5],none was detected
same,final conversion of D-sorbitol to L-gulose,"[6]; 40 g/L polyol, 25° C., ceased after 7 days",12%
same,"Relative reaction rates, Native MDH",[3],22%
"Nc1ccn(C2CSC(CO)O2)c(=O)n1 (racemic) [BCH-189, (±)-2,3-dideoxy-3′-thiacytidine]",anti-HIV activity,[7],anti-HIV activity
C[C@H](O)[C@@H](O)[C@@H](O)[C@H](O)CO [L-fucitol],"relative reaction rate, % the rate of D-mannitol",[8],10.5%
OC[C@@H](O)[C@@H](O)[C@H](O)[C@H](O)CO [D-Mannitol],"Relative reaction rates, Recombinant MDH",[2],100%
same,conversion of polyol to sugar detected by HPLC,[5],none was detected
same,conversion of D-mannitol to D-mannose,"[6]; 40 g/L polyol, 25° C., after 6 days",12%
same,"Relative reaction rates, Native MDH",[3],100%
OC[C@@H](O)[C@@H](O)[C@@H](O)CO [Ribitol],"Relative reaction rates, Recombinant MDH",[2],50%
same,"Relative reaction rates, Native MDH",[3],36%
OC[C@@H](O)[C@H](O)[C@H](O)[C@@H](O)CO [galactitol],conversion of polyol to sugar detected by HPLC,[5],none was detected
same,conversion of galactitol to L-galactose,"[6]; 40 g/L polyol, 25° C., 14 days",40%
OC[C@@H](O)[C@H](O)[C@@H](O)CO [Xylitol],"Relative reaction rates, Recombinant MDH",[2],1%
same,"Relative reaction rates, Native MDH",[3],0%
OC[C@@H](O)C(O)[C@H](O)CO [D-Arabitol],"Relative reaction rates, Recombinant MDH",[2],33%
same,conversion of D-arabitol to D-lyxose,[6],24%
same,"Relative reaction rates, Native MDH",[3],37%
Nc1ccn([C@@H]2CS[C@H](CO)O2)c(=O)n1 [Strain L-3TC],potency compared with the D-form of BCH-189,[7],more potent
"MDH: NAD-dependent mannitol-1-dehydrogenase from Apium graveolens, SEQ ID NO:2, wild type, expressed in E. coli (protein) MAKSSEIEHPVKAFGWAARDTTGLLSPFKFSRRATGEKDVRLKVLFSGVCHSDHHMIHNNWGFTTYPIVPGHEIVGVVTEVGSKVEKVKVGDNVGIGCLVGSCRSCESCCDNRESHCENIIDTYGSIYFDGTMTHGGYSDTMVADEHFILRWPKNLPLDSGAPLLCAGITTYSPLKYYGLDKPGTKIGVVGLGGLGHVAVKMAKAFGAQVTVIDISESKRKEALEKLGADSFLLNSDQEQMKGARSSLDGIIDTVPVNHPLAPLFDLLKPNGKLVMVGAPEKPFELPVFSLLKGRKLLGGTINGGIKETQEMLDFAAKHNITADVEVIPMDYVNTAMERLVKSDVRYRFVIDIANTMRTEESLGA",residual activity at pH 7.0,[9],10%
same,loss of MDH activity on incubation of lysates,[10],Most MDH activity was lost
same,Ratio T1/2,[11],1.0
same,ribitol converted to L-ribose,"[12]; 2% ribitol (w/v), shake-flask, 48 hrs",approximately 25%
same,ribitol converted,[12]; 48 hrs,30%
same,productivity of L-ribose,"[12]; in 48 hrs, unoptimized E. coli strain",approximately 35 g·L^−1

# — US20120021468A1, “PRODUCTION OF L-RIBOSE AND OTHER RARE SUGARS” (ZUCHEM, INC., priority 2008, published 2012)
